Series [1] is described as follows: Solubility of calcifediol monohydrate. Type of series: physicochemical. An excerpt:
In one embodiment, calcifediol is synthetically manufactured as calcifediol monohydrate. […] Chemically, calcifediol monohydrate is (3β,5Z,7E)-9,10-secocholesta-5,7,10(19)-triene-3,25-diol monohydrate and its structural formula is: […]

The subject of a further series is plasma proteins. The series is described as follows: Plasma protein binding of calcifediol. Type of series: in vitro ADME. The settings on record: human, read-out: bound to plasma proteins. How it is done: The pharmacokinetics of […] were assessed in healthy subjects and subjects with CKD Stage 3 or Stage 4. […] Steady-state levels of serum total 25-hydroxyvitamin D were reached after approximately 3 months. Following multiple dose administration of […], the average steady state concentrations of serum total 25-hydroxyvitamin D were 53 ng/mL and 68 ng/mL for doses of 30 mcg and 60 mcg dose group, respectively. With respect to distribution, calcifediol is extensively bound to plasma proteins (>98%). The mean apparent volume of distribution was 8.8 L in healthy subjects following a single oral dose of […], and 30.1 L in subjects with Stage 3 or Stage 4 chronic kidney disease following repeated dosing. With respect to elimination, the mean elimination half-life of calcifediol was approximately 11 days in healthy individuals following a single dose of […], and approximately 25 days in patients with Stage 3 or Stage 4 chronic kidney disease following repeated once daily dosing. With respect to metabolism, production of calcitriol from calcifediol is catalyzed by the 1α-hydroxylase enzyme, CYP27B1, located in the kidney, parathyroid gland, and other tissues. […] Calcitriol suppresses CYP27B1 and upregulates CYP24A1. Excretion of calcifediol occurs primarily through the biliary fecal route. […]

Consider `C=C1CC[C@H](O)C/C1=C/C=C1\CCC[C@]2(C)[C@@H]([C@H](C)CCCC(C)(C)O)CC[C@@H]12` [Calcifediol monohydrate, (3β,5Z,7E)-9,10-secocholesta-5,7,10(19)-triene-3,25-diol monohydrate], for which, in series [1], the “solubility in alcohol and fatty oils” value is on record as “soluble”; the solubility in water entry is listed as “practically insoluble”. With `C=C1CC[C@H](O)C/C1=C/C=C1\CCC[C@]2(C)[C@@H]([C@H](C)CCCC(C)(C)O)CC[C@@H]12` [calcifediol, 25-hydroxyvitamin D3], the fraction unbound with plasma proteins is less than 0.02.

The values above are taken from US12208106B2, “Methods of vitamin D treatment” (priority 2016, dated 2025).
